Assay results as given in PubChem BioAssay AID720632 (Broad Institute, 2013).
The source made the active and inactive calls. No rule for the calls is given here.

Molecular target: Caspase-6 (Homo sapiens) (UniProt P55212)
Test: inhibition of CASP6 peptide cleavage – biochemical, VEID-R110 fluorescence, cherry-pick, dose response (AID 720632)
Settings: caspase-6, VEID-R110 fluorogenic substrate; at 23.5 µM (top of the series)

Chain of Caspase-6 (Homo sapiens) (P55212 24-179 limits assumed): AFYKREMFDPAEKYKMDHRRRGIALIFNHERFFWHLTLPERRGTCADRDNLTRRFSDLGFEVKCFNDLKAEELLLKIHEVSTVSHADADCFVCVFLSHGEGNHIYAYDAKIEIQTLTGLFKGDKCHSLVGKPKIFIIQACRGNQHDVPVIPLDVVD
Chain of Caspase-6 (Homo sapiens) (P55212 194-293 limits assumed): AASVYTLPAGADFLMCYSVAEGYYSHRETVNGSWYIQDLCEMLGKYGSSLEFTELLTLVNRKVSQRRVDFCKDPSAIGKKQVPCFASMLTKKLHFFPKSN

SMILES | activity change, negative = inhibition
COCC(=O)Nc1ccc2c(c1)OC[C@H](C)N(CC1CC1)C[C@@H](C)[C@H](OC)CN(C)C2=O | inactive

Same assay, conditions: caspase-6, VEID-R110 fluorogenic substrate; at 26 µM (top of the series)

SMILES | activity change, negative = inhibition
CC(CN1CCCCC1)C(=O)NNC(=O)C12CC3CC(CC(C3)C1)C2 (centres undefined) | inactive
C[C@H]1CN([C@@H](C)CO)C(=O)CCCn2cc(nn2)CO[C@@H]1CN(C)C(=O)CCC(F)(F)F | inactive
O=S(=O)(NCc1cccnc1)c1ccc(Cl)cc1 | inactive
COc1cc(-c2nnc(COC(=O)c3ccc([N+](=O)[O-])o3)o2)cc(OC)c1OC | inactive
NCC[C@@H]1CC[C@H](NC(=O)c2ccccc2F)[C@@H](CO)O1 | inactive
COc1ccc(N2CCN(C(=O)CCCCCn3c(=S)[nH]c4cc5c(cc4c3=O)OCO5)CC2)cc1 | inactive
CC(C)c1ccc(C(=O)N2CCCC(c3cc(C(=O)Nc4ccccc4Cl)no3)C2)cc1 (centres undefined) | inactive
COc1cccc(N2C(=O)NC(=O)/C(=C/c3ccc([N+](=O)[O-])s3)C2=O)c1 | inactive
CCCC(=O)Nc1ccc2c(c1)OC[C@H](C)NC[C@@H](C)[C@@H](OC)CN(C)C2=O | inactive
COC(=O)C[C@@H]1CC[C@H](NC(=O)c2ccc3c(c2)OCO3)[C@@H](CO)O1 | inactive
COc1ccccc1N(CC(=O)NCCSCc1ccccc1Cl)S(C)(=O)=O | inactive
CO[C@@H]1CN(C)C(=O)c2ccc(NC(=O)c3ccccc3)cc2OC[C@H](C)N(C(=O)C2CC2)C[C@@H]1C | inactive
OC[C@H]1[C@H](c2ccc(-c3ccccc3F)cc2)[C@H]2CN(Cc3cccnc3)CCCCN21 | inactive
CNC(=O)c1ccccc1NC(=O)C1CC(=O)N(C(C)C)C1 (centres undefined) | inactive
COc1ccc(CCNC(=O)c2cc3cccc(OC)c3oc2=O)cc1OC | inactive
Cc1ccc(NC(=O)Nc2nnc(-c3ccccc3)o2)cc1 | inactive
CCC(=O)Nc1ccc2c(c1)OC[C@@H](C)N(C(=O)CC)C[C@H](C)[C@H](OC)CN(C)C2=O | inactive
CO[C@H]1CN(C)C(=O)c2ccc(NC(=O)c3ccccc3)cc2OC[C@@H](C)N(C(=O)C2CC2)C[C@@H]1C | inactive
O=C(c1nc2ccccn2c1CN1CCCC(c2nc3ccccc3o2)C1)N1CCCC1 (centres undefined) | inactive
CO[C@@H]1CN(C)C(=O)c2ccc(NC(=O)C3CC3)cc2OC[C@@H](C)N(Cc2ccccc2)C[C@H]1C | inactive
COc1ccc(N(C)S(=O)(=O)c2cccc(C(=O)NCC(c3cccs3)N(C)C)c2)cc1 (centres undefined) | inactive
Cc1cccc(N2CCN(C(=O)CCCn3c(=S)[nH]c4cc5c(cc4c3=O)OCO5)CC2)c1C | inactive
O=C(Oc1ccc(Nc2ncnc3ccccc23)cc1)c1cccnc1 | inactive
COc1cc(OC)c(-c2nn3c(C4CCCCC4)nnc3s2)cc1OC | inactive
Cc1cc(C)cc(N(CC(=O)NC(C)C)C(=O)CCC(=O)Nc2ccccn2)c1 | inactive

SMILES | activity change, negative = inhibition
O=C1CC(N2CCSCC2)C(=O)N1c1cccc(Cl)c1 (centres undefined) | inactive
COC(=O)c1cccc(NC(=O)c2cccc(N3C(=O)CCC3=O)c2)c1 | inactive
O=C(COc1ccc(S(=O)(=O)NC2CCCCC2)cc1Cl)NCc1ccc2c(c1)OCO2 | inactive
O=C(O)c1ccc(N2C(=O)CC(N3CCN(c4cccc(C(F)(F)F)c4)CC3)C2=O)cc1 (centres undefined) | inactive
COc1cc(N)c2ncccc2c1Cl | inactive
CCCN1C[C@H](C)[C@H](OC)CN(C)C(=O)c2ccc(NC(=O)c3ccccc3)cc2OC[C@@H]1C | inactive
CCC(=O)N1CCC1(C)C(=O)Nc1cccc2cccnc12 (centres undefined) | inactive
O=C(NC1CCCCC1)N[C@H]1C=C[C@@H](CC(=O)N2CCOCC2)O[C@@H]1CO | inactive
Cc1onc(NC(=O)NC(=O)c2c(F)cccc2Cl)c1Br | inactive
COC(=O)CN1C(=O)COc2ccc(S(=O)(=O)N3CCCCC3)cc21 | inactive
COCCNc1nc(Nc2ccccc2Cl)c2sc(-c3ccccc3)cc2n1 | inactive
CC(C)(O)c1cn([C@@H]2C[C@@H]3O[C@@H](CO)CC[C@@H]3O[C@@H]2CCc2ccc(-c3ccncc3)cc2)nn1 | inactive
COC(=O)[C@H]1[C@H](CO)[C@H]2Cn3c(cccc3=O)[C@H]2N1CC1CCOCC1 | inactive
Cc1ccccc1OC1(C)CCN(Cc2ccc(-c3ccccn3)cc2)C1 (centres undefined) | inactive
O=C(CCCCCn1c(=S)[nH]c2cc3c(cc2c1=O)OCO3)N1CCN(Cc2ccccc2)CC1 | inactive
CCOC(=O)C1CCCN(S(=O)(=O)c2nc3nc(C)cc(C)n3n2)C1 (centres undefined) | inactive
CC(=O)c1ccc(S(=O)(=O)N2CCN(C(=O)c3ccc(-n4cncn4)c([N+](=O)[O-])c3)CC2)cc1 | inactive
O=C(O)c1cc([N+](=O)[O-])cc([N+](=O)[O-])c1N1CCN(c2cccc(C(F)(F)F)c2)CC1 | inactive
CCC1=NN(C(=O)c2ccccc2O)C(O)(c2ccccc2)C1 (centres undefined) | inactive
CCOC(=O)c1c(C)c(C(=O)NCc2ccc(OC)cc2)c(C)n1C | inactive
CO[C@H]1CN(C)C(=O)c2ccc(NC(=O)C3CC3)cc2OC[C@@H](C)N(Cc2ccccc2)C[C@@H]1C | inactive
O=C(CCCn1c(=S)[nH]c2cc3c(cc2c1=O)OCO3)N1CCN(c2ccccc2F)CC1 | inactive
Cn1c(C(=O)N2CCCC(Nc3ccc(F)cc3)C2)cc2ccccc21 (centres undefined) | inactive
COc1ccc(/C(C)=N/N2CCCCC2)c(O)c1 | inactive
COC(=O)C[C@H]1CC[C@@H]2[C@H](COc3ccc(NC(=O)c4cnccn4)cc3C(=O)N2C)O1 | inactive

SMILES | activity change, negative = inhibition
CC1CCc2[nH]c3ccc(C(=O)O)cc3c2C1 (centres undefined) | inactive
COc1cc(OC)c(OC)cc1CN1CCSCC1 | inactive
CCCN1C[C@@H](C)[C@@H](OC)CN(C)C(=O)c2ccc(NC(=O)c3ccccc3)cc2OC[C@@H]1C | inactive
CO[C@@H]1CN(C)C(=O)c2ccc(NC(=O)C3CC3)cc2OC[C@H](C)N(Cc2cccc(F)c2)C[C@H]1C | inactive
CC(C)NC(=O)N1[C@H](CO)[C@@H](c2ccccc2)C12CN(C(=O)Cc1cccnc1)C2 | inactive
CCCCn1nnnc1C(CCSC)N1CCC(n2c(=O)[nH]c3ccccc32)CC1 (centres undefined) | inactive
CN1CCN(c2ccc(CNC(=O)C3Cc4c(-c5ccc6c(c5)OCO6)ccnc4O3)cc2)CC1 (centres undefined) | inactive
COC(=O)c1ccc(C(=O)OC)c(NC(=O)CN(c2ccc3c(c2)OCO3)S(C)(=O)=O)c1 | inactive
Cc1cc(N2CCCC2)ccc1NC(=O)CN1C(=O)NC2(CCCCC2)C1=O | inactive
CCC1(C)Cc2c(C#N)c(N)n(-c3ccccc3)c(=S)c2CO1 (centres undefined) | inactive
O=C1[C@H]2[C@@H](c3ccccc3)N[C@]3(CCCN(CC4CCCCC4)C3=O)[C@H]2C(=O)N1Cc1ccccc1 | inactive
CO[C@@H]1CN(C)C(=O)c2ccc(NC(=O)C3CC3)cc2OC[C@@H](C)N(C)C[C@H]1C | inactive
O=C(O)C1Sc2[nH]c(=O)sc2C2c3ccc(O)cc3OC(=O)C12 (centres undefined) | inactive
CN1CC2([N+](=O)[O-])CC=C(OCCO)C([N+](=O)[O-])(C1)C2 (centres undefined) | inactive
COCCn1c(SCCN2CCOCC2)nc2c1c(=O)[nH]c(=O)n2C | inactive
CCCC(=O)Nc1ccc2c(c1)OC[C@H](C)N(Cc1ccc(F)cc1)C[C@H](C)[C@@H](OC)CN(C)C2=O | inactive
CCC1CCc2sc(C(=O)NNC(=O)c3ccncc3)cc2C1 (centres undefined) | inactive
CC(=O)N1CCc2c(sc(NC(=O)C3CCCCC3)c2C(N)=O)C1 | inactive
O=C(C[C@@H]1C[C@H]2c3cc(NC(=O)Nc4ccccc4F)ccc3O[C@H]2[C@H](CO)O1)NC1CCCC1 | inactive
CC(C)N=C(Nc1cccnc1)c1ccccc1 | inactive
O=C(COC(=O)c1ccc([N+](=O)[O-])o1)Nc1ccc(N2CCOCC2)cc1 | inactive
Cc1ccc(NS(=O)(=O)c2ccc(Br)s2)nc1 | inactive
Cc1[nH]ncc1Nc1c(C(C)C)cccc1C(C)C | inactive
